Series [1] in a line: Acute toxicity in BALB/c mouse lung assessed as distortion of alveolar morphology at 20 to 80 mg/kg, ip administered as single dose measured for 7 days by H and E staining method. It counts as organism-based. Particulars: in vivo, 168 h, dose 20-80 mg/kg, time 7 day.
Series [2] concerns Escherichia coli. Kind of series: Bactericidal activity against Escherichia coli ATCC 25922 at 2 times MIC measured after 3 hrs by time-killing kinetics assay. The format is functional.
The nature of series [3]: Acute toxicity in BALB/c mouse lung assessed as congestion at 20 to 80 mg/kg, ip administered as single dose measured for 7 days by H and E staining method. The format is organism-based. Conditions: in vivo, 168 h, dose 20-80 mg/kg, time 7 day.
The test system of series [4] is Staphylococcus aureus. As to the kind of experiment: Antimicrobial activity against Staphylococcus aureus ATCC 25923 assessed as increase fold in increase MIC in presence of FeCl3. The format is functional.
Series [5] concerns Escherichia coli. Kind of series: Bactericidal activity against Escherichia coli ATCC 25922 at 1 times MIC measured after 6 hrs by time-killing kinetics assay. The format is functional.
For series [6], the system named is Escherichia coli. Kind of series: Antibiofilm activity against Escherichia coli ATCC 25922 assessed as inhibition of biofilm formation at 4 times MIC measured after 24 hrs by crystal violet staining based assay. It counts as functional, organism-based.
Series [7] deals with Escherichia coli. As to the kind of experiment: Bactericidal activity against Escherichia coli ATCC 25922 at 2 times MIC measured after 30 mins by time-killing kinetics assay. The format is functional. Conditions: 0.5 h.
Series [8] can be described thus: Acute toxicity in BALB/c mouse spleen assessed as edema at 20 to 80 mg/kg, ip administered as single dose measured for 7 days by H and E staining method. The format is organism-based. Particulars: in vivo, 168 h, dose 20-80 mg/kg, time 7 day.
Series [9] has as its system Staphylococcus aureus. Kind of series: Antibacterial activity against Staphylococcus aureus ATCC 25923 infected in BALB/C mouse pulmonary infection model assessed as increase in dilation of alveoli in lung at 10 mg/kg, ip after 24 hrs by H and E staining method. It counts as functional, organism-based.
Series [10] has as its system Staphylococcus aureus. As to the kind of experiment: Antimicrobial activity against Staphylococcus aureus ATCC 25923 in presence of NaCl. It counts as functional, organism-based.
Series [11] deals with Staphylococcus aureus. As to the kind of experiment: Antibacterial activity against Staphylococcus aureus ATCC 25923 infected in BALB/C mouse pulmonary infection model assessed as increase in alveolar aggregation in lung at 10 mg/kg, ip after 24 hrs by H and E staining method. The format is functional, organism-based.
Series [12] has as its system Escherichia coli. As to the kind of experiment: Bactericidal activity against Escherichia coli ATCC 25922 at 1 times MIC measured after 2 hrs by time-killing kinetics assay. The format is functional.
For series [13], the system named is Staphylococcus aureus. Kind of series: Antimicrobial activity against Staphylococcus aureus ATCC 25923 in presence of MgCl2. The format is functional, organism-based.
The subject of series [14] is Staphylococcus aureus. Kind of series: In vivo antimicrobial activity against Staphylococcus aureus ATCC 25923 infected in BALB/C mouse pulmonary infection model administered ip. Conditions: dose 5-10 mg/kg, DDE = dose-dependent effect. The format is functional, organism-based.
Series [15] deals with Escherichia coli. As to the kind of experiment: Disruption of membrane integrity in Escherichia coli ATCC 25922 assessed as increase in nucleic acid leakage by measuring PI-uptake level by microplate reader assay. It counts as functional, organism-based.
For series [16], the system named is Staphylococcus aureus. Kind of series: Antibacterial activity against Staphylococcus aureus ATCC 25923 assessed as inhibition of gentamicin resistance development measured after 15 passages in presence of gentamicin by resistance development assay. The format is functional, organism-based.
The subject of series [17] is Escherichia coli. As to the kind of experiment: Antimicrobial activity against Escherichia coli ATCC 25922 in presence of MgCl2. The format is functional, organism-based.
Series [18] concerns Escherichia coli. Kind of series: Antibacterial activity against Escherichia coli ATCC 25922 assessed as inhibition of rifampin resistance development measured after 15 passages in presence of rifampin by resistance development assay. It counts as functional, organism-based.
Series [19] deals with Staphylococcus aureus. As to the kind of experiment: Antibacterial activity against Staphylococcus aureus ATCC 25923 assessed as inhibition of rifampin resistance development measured after 15 passages in presence of rifampin by resistance development assay. The format is functional, organism-based.
The test system of series [20] is Staphylococcus aureus. As to the kind of experiment: Antibacterial activity against Staphylococcus aureus ATCC 25923 infected in BALB/C mouse pulmonary infection model assessed as increase in bacterial killing in lung at 10 mg/kg, ip after 24 hrs by H and E staining method. It counts as functional, organism-based.
In series [21] the test system is Escherichia coli. Kind of series: Antibiofilm activity against Escherichia coli ATCC 25922 assessed as inhibition of biofilm formation at 2 times MIC measured after 24 hrs by crystal violet staining based assay. It counts as functional, organism-based.
For series [22], the system named is Escherichia coli. Kind of series: Antibacterial activity against Escherichia coli ATCC 25922 assessed as inhibition of gentamicin resistance development measured after 15 passages in presence of gentamicin by resistance development assay. The format is functional, organism-based.
Series [23] relates to Staphylococcus aureus. Kind of series: Antimicrobial activity against Staphylococcus aureus ATCC 25923 in presence of KCl. The format is functional, organism-based.
Series [24] relates to Escherichia coli. As to the kind of experiment: Bactericidal activity against Escherichia coli ATCC 25922 at 0.5 times MIC measured after 1 hr by time-killing kinetics assay. The format is functional.
Series [25] can be described thus: Acute toxicity in BALB/c mouse lung assessed as constricted pulmonary alveoli at 10 to 40 mg/kg, ip administered as single dose measured for 7 days by H and E staining method. Particulars: in vivo, 168 h, dose 10-40 mg/kg, time 7 day. It counts as organism-based.
For series [26], the system named is Escherichia coli. Kind of series: Bactericidal activity against Escherichia coli ATCC 25922 at 1 times MIC measured after 1 hr by time-killing kinetics assay. The format is functional.
Series [27] is described as follows: Acute toxicity in BALB/c mouse assessed as pathological changes in liver at 10 to 40 mg/kg, ip administered as single dose measured for 7 days by H and E staining method. It counts as organism-based. Conditions: in vivo, 168 h, dose 10-40 mg/kg, time 7 day.
The nature of series [28]: Acute toxicity in BALB/c mouse liver assessed as infiltration of inflammatory cells at 10 to 40 mg/kg, ip administered as single dose measured for 7 days by H and E staining method. The format is organism-based. Conditions: in vivo, 168 h, dose 10-40 mg/kg, time 7 day.
Series [29] relates to Escherichia coli. As to the kind of experiment: Antimicrobial activity against Escherichia coli ATCC 25922 assessed as reduction in survival rate in presence of >= 0.02 microg/ml of trypsin measured after 6 hrs. The format is functional, organism-based.
In series [30] the test system is Escherichia coli. As to the kind of experiment: Bactericidal activity against Escherichia coli ATCC 25922 at 2 times MIC measured after 1 hr by time-killing kinetics assay. The format is functional.
Series [31] in a line: Acute toxicity in BALB/c mouse spleen assessed as edema at 10 to 40 mg/kg, ip administered as single dose measured for 7 days by H and E staining method. It counts as organism-based. Conditions: in vivo, 168 h, dose 10-40 mg/kg, time 7 day.
The next series relates to HK-2. Kind of series: Cytotoxicity against human HK-2 cells assessed as reduction in cell viability at 0 to 128 uM incubated for 1 hr by Resazurin cell viability kit. It counts as toxicity, cell-based. Particulars: hk-2, 1 h, dose 0-128 µM.
The subject of series [32] is Escherichia coli. Kind of series: Antimicrobial activity against Escherichia coli ATCC 25922 assessed as reduction in survival rate in presence of 0.02 to 2000 microg/ml of trypsin measured after 6 hrs. It counts as functional, organism-based.
The nature of series [33]: Acute toxicity in BALB/c mouse assessed as ruffled hairs at 10 to 20 mg/kg, ip administered as single dose measured for 7 days. The format is organism-based. Particulars: in vivo, 168 h, dose 10-20 mg/kg, time 7 day.
Series [34] is described as follows: Acute toxicity in BALB/c mouse kidney assessed as edema at 10 to 40 mg/kg, ip administered as single dose measured for 7 days by H and E staining method. It counts as organism-based. Conditions: in vivo, 168 h, dose 10-40 mg/kg, time 7 day.
Series [35] can be described thus: Acute toxicity in BALB/c mouse assessed as abdominal twitching at 10 to 20 mg/kg, ip administered as single dose measured for 7 days. Particulars: in vivo, 168 h, dose 10-20 mg/kg, time 7 day. It counts as organism-based.
Series [36] has as its system Escherichia coli. Kind of series: Antimicrobial activity against Escherichia coli ATCC 25922 assessed as reduction in survival rate in presence of >= 0.02 microg/ml of chymotrypsin measured after 6 hrs. It counts as functional, organism-based.
Series [37] in a line: Acute toxicity in BALB/c mouse assessed as mortality at 20 mg/kg, ip administered as single dose measured for 7 days. The format is organism-based. Particulars: in vivo, 168 h, time 7 day.

Molecules are shown by their SMILES. Activity calls are given as the source filed them. No cut-off for these calls is given here. Bridge positions count the residues as written; N and C are the ends. Square brackets hold non-standard residues; d marks the D form. Peptide text beside a SMILES is read from it. * marks the point of attachment. X1 = CC[C@H](C)CCCCC(=O)*; Dab = NCC[C@H](N)C(=O)O

Data on 3 compounds can be found in ChEMBL document CHEMBL5108051, “Improving the Antimicrobial Performance of Amphiphilic Cationic Antimicrobial Peptides Using Glutamic Acid Full-Scan and Positive Charge Compensation Strategies” (J Med Chem, 2022).

Take `CC[C@H](C)[C@H](NC(=O)[C@@H]1CCCN1C(=O)[C@H](CC(C)C)NC(=O)[C@@H](N)Cc1ccccc1)C(=O)N[C@H](C(=O)N[C@@H](C)C(=O)N[C@@H](CCCCN)C(=O)N[C@@H](CC(C)C)C(=O)N[C@@H](CC(C)C)C(=O)N[C@@H](CO)C(=O)NCC(=O)N[C@@H](CC(C)C)C(=O)N[C@@H](CC(C)C)C(N)=O)C(C)C` (H-FLPIVAKLLSGLL-NH2): the Activity result in series [1] is reported as “Toxic”; in the series with Escherichia coli [2], 100%; in [3], “Toxic”; in the series with Escherichia coli [5] it was 100%. The “fold change (FC)” value in the series with Staphylococcus aureus [4] is reported as 2. Moreover, the result in the series with Escherichia coli [6] was Active.
`CC(C)C[C@H](NC(=O)[C@H](CC(C)C)NC(=O)[C@H](CCC(=O)O)NC(=O)[C@H](CCCCN)NC(=O)[C@H](CC(C)C)NC(=O)[C@H](CC(C)C)NC(=O)[C@H](CCCCN)NC(=O)[C@H](C)NC(=O)[C@@H](NC(=O)[C@H](CCCCN)NC(=O)[C@@H]1CCCN1C(=O)[C@H](CC(C)C)NC(=O)[C@@H](N)Cc1ccccc1)C(C)C)C(N)=O` (H-FLPKVAKLLKELL-NH2): the Activity in the series on Escherichia coli [7] was 100%; in series [8] it was “Toxic”; in the series on Escherichia coli [12], 100%; in the series with Staphylococcus aureus [14], “Dde”. The result in the series on Staphylococcus aureus [9], in the series with Staphylococcus aureus [10], in the series on Staphylococcus aureus [11], with Staphylococcus aureus [13], in the series with Escherichia coli [15] and with Staphylococcus aureus [16] was Active. The result in the series on Escherichia coli [17], in the series with Escherichia coli [18], in the series with Staphylococcus aureus [19], with Staphylococcus aureus [20], in the series on Escherichia coli [21] and in the series with Escherichia coli [22] was Active. The outcome with Staphylococcus aureus [23] was Active.
On to `CC[C@H](C)CCCCC(=O)N[C@@H](CCN)C(=O)N[C@H](C(=O)N[C@@H](CCN)C(=O)N[C@H]1CCNC(=O)[C@H]([C@@H](C)O)NC(=O)[C@H](CCN)NC(=O)[C@H](CCN)NC(=O)[C@H](CC(C)C)NC(=O)[C@@H](Cc2ccccc2)NC(=O)[C@H](CCN)NC1=O)[C@@H](C)O` (X1-[Dab]T[Dab][Dab][Dab][dF]L[Dab][Dab]T; lactam 4-C), for which the Activity is recorded as 100% in the series with Escherichia coli [24]; “Non-Toxic” in series [25]; 100% in the series on Escherichia coli [26]; “Non-Toxic” in [27]; “Non-Toxic” in series [28]; 100% with Escherichia coli [30]. For the same compound, the Activity result in series [31] was “Non-Toxic”; in the series on HK-2, “Non-Toxic”; in series [33] it was “Toxic”; in [34] it was “Non-Toxic”; in [35] it was “Toxic”; in [37], “Toxic”. Also, the result in the series on Escherichia coli [29], in the series on Escherichia coli [32] and in the series on Escherichia coli [36] was Active.
